Laboratory results: patent US11957680B2, “Pyruvate kinase activators for use in treating blood disorders” (Agios Pharmaceuticals, Inc., priority 2017, dated 2024)

Experiments:
wild type PKR [1] = target: T1, wild type PKR (Homo sapiens, UniProt P30613); assay: PKR (wild type) enzyme AC50 assay, LDH/NADH-coupled, absorbance at 340 nm; format: biochemical; details: Table 2, enzyme assay; for AC50: read-out: PKR WT AC50
Protocol: (§1) Example 11. PKR Mutant Assay
(§2) PKR or PKR mutant enzyme solution was diluted into a reaction mix, which contains 1× buffer (100 mM KCl, 50 mM Tris pH 7.5, 5 mM MgCl2) as well as PEP (conc depends on enzyme), 180 μM NADH, 0.5 units LDH, 1 mM DTT, 0.03% BSA; final assay concentrations after 1.11 fold dilution are indicated.
(§3) 2 μL of test compound was added into wells first, and then 180 μL reaction mix was added.
(§4) Reactions mixture with test compound was assembled except for ADP, and plates were stored for 60 minutes at room temperature.
(§5) 20 uL ADP was added to start reaction at room temperature and reaction progress was measured as changes in absorbance at 340 nm wavelength at room temperature.
(§6) Test Compound Preparation:
(§7) Test compound stock was made at 100× concentration in 100% DMSO (10 mM)
(§8) 1 to 3 dilutions were made for 11 points (i.e. 50 μl of first concentration added to 100 μl 100% DMSO to yield 3.33 mM, 50 μl of this added to 100 μl DMSO to yield 1.11 mM, and so forth) • 1 to 100 dilution into assay (2 μl in 200 μl) yielded starting concentration of 100 μM, decreasing 3 fold for 11 points.
(§9) Assay Buffer: 100 mM KCl, 50 mM Tris 7.5, 5 mM MgCl2, 1 mM DTT, 0.03% BSA
(§10) Reaction Mixture: PKR mutant enzyme: 40-400 ng/well; ADP: 0.2-1.65 mM; PEP: 0.1-0.5 mM; NADH: 180 μM; LDH: 0.5 units (Sigma #59023); DTT: 1 mM; BSA: 0.03%.

PKR K410E = PKR K410E (Homo sapiens, UniProt P30613, K410E); assay: PKR mutant assay (K410E), AC50, LDH/NADH-coupled, absorbance at 340 nm; format: biochemical; details: Table 2; enzyme assay
Protocol: as §1, §2, §3, §4, §5, §6, §7, §8, §9, §10

PKR R510Q = PKR R510Q (Homo sapiens, UniProt P30613, R510Q); assay: PKR mutant assay (R510Q), AC50, LDH/NADH-coupled, absorbance at 340 nm; format: biochemical; details: Table 2, enzyme assay; for AC50: read-out: PK R510Q AC50
Protocol: as §1, §2, §3, §4, §5, §6, §7, §8, §9, §10

wild type PKR [2] = target: T1, wild type PKR; assay: Cell based ATP assay in purified red blood cells (Cell-Titer-Glo); set-up: endogenous in cells; host or cells: purified red blood cells from healthy volunteers; details: Table 2; RBCs, overnight at 37° C., ATP levels
Protocol: Example 16. Red Blood Cell (RBC) Purification
Fresh blood drawn from healthy volunteers into K2EDTA tubes was collected. Whole blood was pelleted by spinning at 500 g for 10 minutes. Cut transfusion bag port off of Purecell leukocyte reduction neofilter (Fisher NC0267633) one (1) inch above filter. Attach a 10 ml syringe barrel to the remaining cut tubing attached to neofilter. The plasma layer was removed from the pellet of the whole blood and the pellet was resuspended in 2× volume of phosphate buffered saline (PBS). Transfer 9 ml re-suspended blood cell pellet to prepared 10 ml syringe that is attached to the neofilter. Allow whole blood to gravity flow through filter until all fluid runs through upper tubing into filter disc. Add plunger to the syringe, remove syringe from clamp and invert the filter, then plunge air through the syringe filter system. Using a new 5 ml syringe, remove filtered RBCs from the bag by the syringe port and transfer purified RBCs to a 5 ml snap cap tube that has been incubated on ice. Spin 5 ml snap cap tube at 500 g for 10 minutes at 15 C, aspirate supernatant and resuspend in AGAM (1×PBS, 1% glucose, 170 mg/L adenine, 5.25 g/L mannitol) at a density of 4×10^9 cells/mL.
Example 17. Cell Based ATP Assay
For cell based ATP assays, the compound as described herein was prepared in 100% DMSO as a 10 mM stock. Serial dilutions (1:4) were performed in 96-well V-bottom storage plate and then added 1:100 to 96-well V-bottom plates containing AGAM. RBCs were diluted in AGAM media to a density of 1×10^7 cells/mL before added 90 μL/well to black clear bottom assay plates (final compound concentration at 0.1% DMSO concentration). Assay plates were sealed using aluminum foil seals and incubated overnight at 37° C. in a humidified chamber. ATP levels were read out using Cell-Titer-Glo (Promega).

PKR R510Q, sequence (P30613 whole entry R510Q): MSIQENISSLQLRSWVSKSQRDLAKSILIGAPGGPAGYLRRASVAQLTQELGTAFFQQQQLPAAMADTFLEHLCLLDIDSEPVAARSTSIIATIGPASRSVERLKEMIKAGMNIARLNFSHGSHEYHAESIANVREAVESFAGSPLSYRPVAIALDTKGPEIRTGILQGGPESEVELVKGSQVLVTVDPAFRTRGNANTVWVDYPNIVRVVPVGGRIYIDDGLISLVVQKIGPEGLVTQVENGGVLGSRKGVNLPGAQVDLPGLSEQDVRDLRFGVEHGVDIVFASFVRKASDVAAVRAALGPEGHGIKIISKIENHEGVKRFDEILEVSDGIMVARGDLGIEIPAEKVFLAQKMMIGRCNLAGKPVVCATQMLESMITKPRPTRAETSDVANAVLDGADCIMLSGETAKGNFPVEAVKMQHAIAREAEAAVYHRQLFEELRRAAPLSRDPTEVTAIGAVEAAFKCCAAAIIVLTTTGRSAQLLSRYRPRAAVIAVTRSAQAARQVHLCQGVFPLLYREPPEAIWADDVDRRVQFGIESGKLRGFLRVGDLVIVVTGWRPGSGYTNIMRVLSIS
PKR K410E, sequence (P30613 whole entry K410E): as the sequence (P30613 whole entry R510Q) above, with K410E, Q510R counted along it
T1 sequence (P30613 whole entry): as the sequence (P30613 whole entry R510Q) above, with Q510R counted along it

| PKR WT AC50 (wild type PKR [1]) | AC50 (PKR K410E) [nM] | PK R510Q AC50 (PKR R510Q) | AC50 (wild type PKR [2]) [nM] | AC50 (wild type PKR [1]) [nM] | AC50 (PKR R510Q) [nM] | Cell based ATP assay AC50 (wild type PKR [2]) | SMILES |
| --- | --- | --- | --- | --- | --- | --- | --- |
| No Fit | > 800 | No Fit | > 1000 |  |  |  | Cn1c2nc([S+](C)[O-])sc2c2cnn(Cc3ccc(C(N)=O)cc3)c(=O)c21 (stereo not drawn) [Compound 98] |
|  | 301 to 800 |  | ≤ 1000 | < 300 | 301 to 800 |  | Cn1c2nc(Cc3cccc(C#N)c3)sc2c2cnn(Cc3cccc4[nH]ncc34)c(=O)c21 [Compound 99] |
|  | < 300 |  | ≤ 1000 | < 300 | < 300 |  | Cn1c2nc(Cc3cccc(C(N)=O)c3)sc2c2cnn(Cc3cccc4[nH]ncc34)c(=O)c21 [Compound 100] |
|  | > 800 |  | > 1000 | > 800 | > 800 |  | Cn1c2nc([S+](C)[O-])sc2c2cnn(Cc3cnc(N)s3)c(=O)c21 (stereo not drawn) [Compound 101] |
|  | < 300 |  | ≤ 1000 | < 300 | < 300 |  | Cn1c2nc([S+](C)[O-])sc2c2cnn(Cc3ccc4ccccc4n3)c(=O)c21 (stereo not drawn) [Compound 102] |
|  | < 300 |  | ≤ 1000 | < 300 | < 300 |  | CNc1cccc(Cc2nc3c(s2)c2cnn(Cc4cccc5[nH]ncc45)c(=O)c2n3C)c1 [Compound 103] |
|  | > 800 |  | > 1000 | < 300 | < 300 |  | C=Cc1nc2c(s1)c1cnn(Cc3cccc4[nH]ncc34)c(=O)c1n2C [Compound 104] |
|  | < 300 |  | ≤ 1000 | < 300 | < 300 |  | Cn1c2nc(CO)sc2c2cnn(Cc3cccc4[nH]ncc34)c(=O)c21 [Compound 105] |
|  | < 300 |  | ≤ 1000 | < 300 | < 300 |  | CC(O)c1nc2c(s1)c1cnn(Cc3cccc4[nH]ncc34)c(=O)c1n2C (stereo not drawn) [Compound 106] |
| No Fit | > 800 |  |  |  | > 800 | No Fit | CSc1nc2c(s1)c1cnn(Cc3cn4cccnc4n3)c(=O)c1n2C [Compound 107] |
|  | < 300 |  | ≤ 1000 | < 300 | < 300 |  | COc1cccc(Cn2ncc3c4sc(C(F)(F)c5ccccc5)nc4n(C)c3c2=O)c1 [Compound 108] |
|  | < 300 |  | ≤ 1000 | < 300 | < 300 |  | CNc1ccc(Cc2nc3c(s2)c2cnn(Cc4cccc5[nH]ncc45)c(=O)c2n3C)cc1 [Compound 109] |
|  | > 800 |  |  | > 800 | > 800 | No Fit | CSc1nc2c(s1)c1cnn(Cc3cccc(S(N)(=O)=O)c3)c(=O)c1n2C [Compound 110] |
|  | < 300 |  | ≤ 1000 | < 300 | < 300 |  | Cn1c2nc(Cc3cc[nH]n3)sc2c2cnn(Cc3ccc4ccccc4n3)c(=O)c21 [Compound 111] |
|  | > 800 |  | > 1000 | > 800 | > 800 |  | Cn1c2nc(Cc3ccc(C(N)=O)cc3)sc2c2cnn(Cc3cccc4[nH]ncc34)c(=O)c21 [Compound 112] |
|  | > 800 |  | > 1000 | > 800 | > 800 |  | COC(=O)C(C(=O)OC)c1nc2c(s1)c1cnn(Cc3cccc4[nH]ncc34)c(=O)c1n2C [Compound 113] |
|  | < 300 |  |  | < 300 | < 300 | No Fit | CSc1nc2c(s1)c1cnn(Cc3cccc4sc(N)nc34)c(=O)c1n2C [Compound 114] |
|  | > 800 |  |  | > 800 | > 800 | No Fit | CSc1nc2c(s1)c1cnn(Cc3ccc(S(N)(=O)=O)cc3)c(=O)c1n2C [Compound 116] |
